# Measured values as given in paper PMC4430595 (European Journal of Clinical Pharmacology, 2015).
# “And” between values parts separate entries of the source, which are not always exact repeats. Identical values can stand only once. Like-named read-outs stand apart in the source and are kept apart here.
# Legend:
# [1] = cited from earlier work
# plasma proteins = test: Plasma protein binding by equilibrium dialysis (study A pre-infusion plasma); assay type: in vitro ADME, human; settings: in vitro equilibrium dialysis; for Protein binding (%): pre-infusion plasma, telavancin 50 μg/ml spiked with 1 μg/ml [14C]telavancin, mean ± SD
# Protocol: The percent of protein binding was calculated as follows: %bound=donor−receptor÷donor×100%,and%unbound=receptor÷donor×100%, where donor = plasma side concentration and receptor = buffer side concentration.
# [2] = Study B: urinary excretion and renal clearance; settings: mean ± SD; for CLR (renal clearance): CLR = Ae ÷ AUC; for dose excreted: human, in vivo, iv, 10 mg/kg; for Ae0–∞ (amount excreted in the urine extrapolated to infinity): normalized to a telavancin dose of 10 mg/kg
# Protocol: Aliquots were collected and stored at −70 °C or lower.
# The inter- and intra-assay precision and accuracy of quality controls and standards during the validation was within 7.6 % in plasma and 10.2 % in urine.
# Plasma pharmacokinetic parameters were calculated as previously described [7]. The CL reported for ESRD is the CL for the subjects (i.e., includes residual clearance and any dialysis clearance).
# Dialyzers used included the PSN 210 and the 2K 2.5 Dialysate (both Gambro). The dialysate flow rate was 800 mL/min, and blood flow rates in patients ranged from 300 to 500 mL/min. […] In study B, the percentage of the dose excreted in urine was calculated as Ae0–t% = Ae0–t/dose × 100 % and Ae0–∞% = Ae0–∞/dose × 100 %.
# [3] = Study A: plasma pharmacokinetics after single-dose i.v. telavancin 7.5 mg/kg in subjects with varying renal function
# Description: (§1) Subjects included men and non-pregnant women and, in study A or B, respectively, were ≥18 years or 20–79 years of age with a body mass index of 18–36 or 18.5–34 kg/m^2. Subjects were either healthy or had mild, moderate or severe renal impairment.
# (§2) Subjects were assigned to the renal impairment strata based on assessment during pre-study screening. For study A, strata assignment was based on CLcr calculated using the Cockcroft-Gault (C–G) equation [12] […] For study B, assignment was based on the estimated glomerular filtration rate (eGFR) using the Modification of Diet in Renal Disease formula [13] […] Summary statistics for Study B were also prepared using the C–G equation [12] with and without normalization to body surface area. Creatinine assays were performed at each clinical site using UV absorbance assays at 512 nm to detect the yellow–red complex formed from the reaction of creatinine and picric acid under alkaline conditions.
# (§3) In subjects with end-stage renal disease (ESRD), haemodialysis was initiated 2–4 h after study drug administration (study A only). Haemodialysis sessions were 4 h in duration, and when possible, a similar type of dialyzer at a similar blood flow rate was used across haemodialysis subjects.
# (§4) Blood samples (5–6 ml) were collected in sodium heparin glass tubes and stored chilled until the plasma was harvested by centrifugation and stored at approximately –70 °C or below until transferred frozen to a central laboratory for analysis. For subjects with varying degrees of renal impairment, samples were collected in study A pre-infusion, at 1, 2, 4, 6, 8, 12, 24, 36 and 48 h after the start of infusion for all groups and also at 72 and 96 h post-infusion for subjects with severe renal impairment or ESRD. In study B, samples were collected pre-infusion and at 0.5, 1, 1.5, 2, 3, 4, 6, 8, 10, 12, 16, 24, 36, 48, 60, 72, 84 and 96 h post-dose.
# (§5) The method was linear over the range 0.25–100 μg/ml and the lower limit of quantification (LLQ) was 0.25 μg/ml. Dialysate samples from study A were analysed at a separate central laboratory (Covance Laboratories, Madison, WI, USA) using a similar validated LC–MS method. […] Study samples outside the calibration range were diluted and re-assayed. Dilution QC samples were included in batches where samples were diluted prior to analysis.
# (§6) The CL reported for ESRD is the CL for the subjects (i.e., includes residual clearance and any dialysis clearance).
# clinical = settings: both, human, in vivo, iv, 7.5 mg/kg
# Description: as §1, §2, §3, §4, §5, §6
# [4] = Study B: plasma pharmacokinetics after single-dose i.v. telavancin 10 mg/kg in subjects with varying renal function; settings: for half-life / AUC(0-inf) / Cmax / clearance: both, human, in vivo, iv; for half-life / AUC(0-inf) / Cmax / clearance / increase in systemic exposure (AUC0–∞) compared with healthy subjects: 10 mg/kg; for AUC(0-inf): AUC0–∞; for Cmax: C max (maximum plasma concentration); for clearance: CL (clearance)
# Protocol: Plasma pharmacokinetic parameters were calculated as previously described.
# [5] = study A, ESRD
# Protocol: as §3
# For subjects with ESRD (study A), a sample from the inflow to the dialyzer on the arterial side was collected before dialysis and at 1, 2, 3 and 4 h after the start of dialysis; dialysate fluid samples (10 ml) were collected before and at 30-min intervals during dialysis. Plasma samples were also collected at 0, 60, 120, 180 and 240 min following the start of dialysis.
# as §5
# Dialyzers used included the PSN 210 and the 2K 2.5 Dialysate (both Gambro). The dialysate flow rate was 800 mL/min, and blood flow rates in patients ranged from 300 to 500 mL/min.
# [6] = not given; remark: listed apart in the source
# [7] = subjects with severe renal impairment or ESRD, stated for both studies
# [8] = study B, single 1-h i.v. infusion telavancin 10 mg/kg, plasma, mild RI (eGFR 60 to 89 mL/min/1.73 m^2), n = 13, mean ± SD
# [9] = study B, single 1-h i.v. infusion telavancin 10 mg/kg, plasma, normal renal function (eGFR ≥90 mL/min/1.73 m^2), n = 14, mean ± SD
# [10] = study B, single 1-h i.v. infusion telavancin 10 mg/kg, plasma, severe RI (eGFR 15 to 29 mL/min/1.73 m^2), n = 8, mean ± SD
structure (smiles),measurement,setting,value
CCCCCCCCCCNCCN[C@@]1(C)C[C@H](O[C@H]2[C@H](Oc3c4cc5cc3Oc3ccc(cc3Cl)[C@@H](O)[C@@H](NC(=O)[C@@H](CC(C)C)NC)C(=O)N[C@@H](CC(N)=O)C(=O)N[C@H]5C(=O)N[C@H]3C(=O)N[C@H](C(=O)N[C@H](C(=O)O)c5cc(O)c(CNCP(=O)(O)O)c(O)c5-c5cc3ccc5O)[C@H](O)c3ccc(c(Cl)c3)O4)O[C@H](CO)[C@@H](O)[C@@H]2O)O[C@@H](C)[C@H]1O [telavancin],excreted intact in urine,[1]; after a single i.v. administration of 10 mg/kg,82%
same,elimination half-life (t½),"[1]; healthy adult volunteers, 7.5–15 mg/kg/day i.v. infusion, averaging",~7 h
same,Protein binding (%),"plasma proteins; ESRD on dialysis, n = 6",87.6 ± 1.0/0%
same,Protein binding (%),"plasma proteins; mild RI (CLcr 51–80 mL/min), n = 6",87.5 ± 1.0%
same,Protein binding (%),"plasma proteins; moderate RI (CLcr 30–50 mL/min), n = 6",87.8 ± 1.1%
same,Protein binding (%),"plasma proteins; normal renal function (CLcr >80 mL/min), n = 6",86.5 ± 1.3%
same,Protein binding (%),"plasma proteins; severe RI (CLcr <30 mL/min), n = 4",86.7 ± 1.2%
same,average binding to plasma proteins,"plasma proteins; study A pre-dose plasma, all renal impairment groups",approximately 87%
same,CLR (renal clearance),[2]; mild renal impairment,0.147 ± 0.055 mL/min/kg
same,CLR (renal clearance),[2]; moderate renal impairment,0.0783 ± 0.0267 mL/min/kg
same,CLR (renal clearance),[2]; normal renal function,0.17 ± 0.03 mL/min/kg and 0.175 ± 0.0317 mL/min/kg
same,CLR (renal clearance),[2]; severe renal impairment,0.03 ± 0.01 mL/min/kg and 0.0317 ± 0.012 mL/min/kg
same,dose excreted,"[2]; both, Ae0-t % (percentage of the dose excreted in urine), urine 0–96 h, mild renal impairment",58.2 ± 11.5%
same,dose excreted,"[2]; both, Ae0-t % (percentage of the dose excreted in urine), urine 0–96 h, moderate renal impairment",48.4 ± 8.7%
same,dose excreted,"[2]; both, Ae0-t % (percentage of the dose excreted in urine), urine 0–96 h, normal renal function",62.8 ± 9%
same,dose excreted,"[2]; both, Ae0–∞% (percentage of the dose excreted in urine, extrapolated to infinity), normal renal function",62.7 ± 9.1%
same,dose excreted,"[2]; Ae0–∞% (percentage of the dose excreted in urine, extrapolated to infinity), mild renal impairment",58.2 ± 11.6%
same,dose excreted,"[2]; Ae0–∞% (percentage of the dose excreted in urine, extrapolated to infinity), moderate renal impairment",48.4 ± 9.3%
same,dose excreted,"[2]; Ae0–∞% (percentage of the dose excreted in urine, extrapolated to infinity), severe renal impairment",28.2 ± 3.9%
same,Ae0–∞ (amount excreted in the urine extrapolated to infinity),[2]; mild renal impairment,396 ± 100 mg
same,Ae0–∞ (amount excreted in the urine extrapolated to infinity),[2]; moderate renal impairment,375 ± 96 mg
same,Ae0–∞ (amount excreted in the urine extrapolated to infinity),[2]; normal renal function,435 ± 91 mg
same,Ae0–∞ (amount excreted in the urine extrapolated to infinity),[2]; severe renal impairment,208 ± 60 mg
same,Ae0-t % (percentage of the dose excreted in urine),"[2]; urine 0–96 h, severe renal impairment",28.0 ± 4.3%
same,clearance,"[3]; both, human, in vivo, iv, 7.5 mg/kg, CL (clearance), study A, single 1-h i.v. infusion telavancin 7.5 mg/kg, plasma, ESRD, n = 6, includes residual clearance and any dialysis clearance, mean ± SD",0.136 mL/min/kg
same,increase in systemic exposure (AUC0–∞) compared with healthy subjects,"[3]; study A, 7.5 mg/kg, ESRD group",79%
same,increase in systemic exposure (AUC0–∞) compared with healthy subjects,"[3]; study A, 7.5 mg/kg, mild renal impairment",13%
same,increase in systemic exposure (AUC0–∞) compared with healthy subjects,"[3]; study A, 7.5 mg/kg, moderate renal impairment",29%
same,increase in systemic exposure (AUC0–∞) compared with healthy subjects,"[3]; study A, 7.5 mg/kg, severe renal impairment",118%
same,change of t1/2,[3]; [7],almost doubled
same,reduction of mean plasma CL,[3]; [7],more than 50%
same,Cmax,clinical,70.6 ± 11.2 µg/mL
same,serious adverse events,"stated after the study B findings, study not given",No serious adverse events were reported
same,subjects reporting treatment-emergent adverse events (TEAEs),"study B, all subjects, 7/43",16.3%
same,subjects reporting treatment-emergent adverse events (TEAEs),"study B, mild renal impairment, 1/13",7.7%
same,subjects reporting treatment-emergent adverse events (TEAEs),"study B, moderate renal impairment, 2/8",25%
same,subjects reporting treatment-emergent adverse events (TEAEs),"study B, normal renal function, 0/14",0%
same,subjects reporting treatment-emergent adverse events (TEAEs),"study B, severe impairment, 4/8",50%
same,tolerability,"study B, single i.v. infusion 10 mg/kg, normal renal function and varying degrees of renal impairment",well tolerated
same,subjects with ECG QT prolongation,"study B, three subjects of 43 (two severe, one moderate renal impairment), mild and transient",7.0%
same,subjects with increased blood lactate dehydrogenase,"study B, two subjects of 43, mild and transient",4.7%
same,half-life,[4],6.5 h
same,AUC(0-inf),[4]; [8],606 µg·h/mL
same,AUC(0-inf),"[4]; study B, single 1-h i.v. infusion telavancin 10 mg/kg, plasma, moderate RI (eGFR 30 to 59 mL/min/1.73 m^2), n = 8, mean ± SD",936 µg·h/mL
same,AUC(0-inf),[4]; [9],539 µg·h/mL
same,AUC(0-inf),[4]; [10],1400 µg·h/mL
same,Cmax,"[4]; study B, single 1-h i.v. infusion telavancin 10 mg/kg, mild RI (eGFR 60 to 89 mL/min/1.73 m^2), n = 13, mean ± SD",74.2 µg/mL
same,Cmax,"[4]; study B, single 1-h i.v. infusion telavancin 10 mg/kg, normal renal function (eGFR ≥90 mL/min/1.73 m^2), n = 14, mean ± SD",76.7 µg/mL
same,Cmax,"[4]; study B, single 1-h i.v. infusion telavancin 10 mg/kg, severe RI (eGFR 15 to 29 mL/min/1.73 m^2), n = 8, mean ± SD",83.2 µg/mL
same,clearance,[4]; [8],0.253 mL/min/kg
same,clearance,[4]; [9],0.283 mL/min/kg
same,clearance,[4]; [10],0.108 mL/min/kg
same,half-life,"[4]; t ½ (terminal elimination half-life), study B, single 1-h i.v. infusion telavancin 10 mg/kg, plasma, mild RI (eGFR 60 to 89 mL/min/1.73 m^2), n = 13, mean ± SD",7.8 h
same,half-life,"[4]; t ½ (terminal elimination half-life), study B, single 1-h i.v. infusion telavancin 10 mg/kg, plasma, severe RI (eGFR 15 to 29 mL/min/1.73 m^2), n = 8, mean ± SD",11.8 h
same,increase in systemic exposure (AUC0–∞) compared with healthy subjects,"[4]; study B, mild renal impairment",12%
same,increase in systemic exposure (AUC0–∞) compared with healthy subjects,"[4]; study B, moderate renal impairment",74%
same,increase in systemic exposure (AUC0–∞) compared with healthy subjects,"[4]; study B, severe renal impairment",160%
same,C max (maximum plasma concentration),"[4]; study B, single 1-h i.v. infusion telavancin 10 mg/kg, moderate RI (eGFR 30 to 59 mL/min/1.73 m^2), n = 8, mean ± SD",78.0 ± 4.5 µg/mL
same,dialysis clearance as share of clearance in normal subjects (total body CL),[5],approximately 25%
same,total administered dose removed by dialysis session,"[5]; 7.5 mg/kg, 4-h haemodialysis on the day of administration, dialysate flow 800 mL/min",approximately 6%
same,dialysis clearance,"[5]; CLHD = QD × (CTLV – DTLV) ÷ CTLV, dialysate flow 800 mL/min, estimated",4.5 mL/min
same,dialysis clearance,[5]; same value in ml/h,4.52 mL/min
same,subjects reporting treatment-emergent adverse events (TEAEs),"[6]; study A, ESRD, 2/6",33%
same,subjects reporting treatment-emergent adverse events (TEAEs),"[6]; study A, all subjects, 17/29",59%
same,subjects reporting treatment-emergent adverse events (TEAEs),"[6]; study A, mild renal impairment, 4/7",57%
same,subjects reporting treatment-emergent adverse events (TEAEs),"[6]; study A, moderate renal impairment, 3/6",50%
same,subjects reporting treatment-emergent adverse events (TEAEs),"[6]; study A, normal renal function, 5/6",83%
same,subjects reporting treatment-emergent adverse events (TEAEs),"[6]; study A, severe impairment, 3/4",75%
same,tolerability,"[6]; study A, single i.v. infusion 7.5 mg/kg, normal renal function and varying degrees of renal impairment",well tolerated
same,audiology assessments,"[6]; ten subjects with various degrees of renal impairment, study not given",no clinically significant abnormalities
